For assay [1], the system named is large milkweed bug. As to the kind of experiment: Initial insecticidal activity, milkweed bug. It counts as in vivo, Oncopeltus fasciatus (Dallas). Conditions: Oncopeltus fasciatus, 48-hour exposure, read-out: % Kill, Milkweed Bug. The source says: (§1) a. Initial Insecticidal Activity
(§2) In this test, a candidate insecticide, in solution, is applied to either infested or uninfested plants or containers by spraying or dipping. (The preferred test procedure varies with insect species. The dipping method is better than the spraying method, and vice versa, for certain species of insects. Also some species are better adapted to the test by infesting after the chemical treatment rather than before.) Once the tests have been established, a 48-hour exposure period is observed before reading the tests. Insect species included in these tests are Mexican bean beetle (Epilachna varivestis Mulsant), pea aphid [Acyrthosiphon pisum (Harris)], southern armyworm [Spodoptera eridania (Cramer)], twospotted spider mite (Tetranychus urticae Koch), large milkweed bug [Oncopeltus fasciatus (Dallas)], plum curculio [Conotrachelus nenuphar (Herbst)], confused flour beetle (Tribolium confusum Jacquelin duVal) and granary weevil [Sitophilus granarius (Linnaeus)]. Test results are set forth in Table I. A control sample, comprising the solution without the candidate insecticide, is also included.

Assay [2] concerns southern armyworm. As to the kind of experiment: Initial insecticidal activity, southern armyworm. It counts as in vivo, Spodoptera eridania (Cramer). To be noted: Spodoptera eridania, 48-hour exposure, read-out: % Kill, Southern Armyworm.
Text: as §1, §2

Assay [3] has as its system twospotted spider mite. Description: Initial insecticidal activity, twospotted spider mite. The format is in vivo, Tetranychus urticae Koch. Conditions: Tetranychus urticae, 48-hour exposure, read-out: % Kill, Twospotted Spider Mite.
Text: as §1, §2

Assay [4] deals with southern armyworm. As to the kind of experiment: Seven-day residual insecticidal activity, southern armyworm. The format is in vivo, Spodoptera eridania (Cramer). Conditions: Spodoptera eridania, 48-hour exposure, read-out: % Kill, Southern Armyworm. An excerpt: b. Seven-Day Residual Insecticidal Activity
In this test, a candidate insecticide, in solution, is applied to uninfested plants or containers by dipping or spraying. A seven-day holding period is necessary before infestation. A 48-hour exposure period is observed before evaluation of the tests. The insect species used in this type of test are the same as those listed under initial activity.

In assay [5] the test system is southern armyworm. Description: Systemic insecticidal activity (soil/water), southern armyworm. The format is in vivo, Spodoptera eridania (Cramer). To be noted: Spodoptera eridania, 48-hour exposure, read-out: % Kill, Southern Armyworm. As to the method:
(§3) c. Systemic Insecticidal Acitivity (Soil/Water)
(§4) In this test, a candidate insecticide, in solution, is added to the soil of either uninfested pinto bean seedlings (Phaseolus vulgaris) or uninfested broad bean seedlings (Vicia faba var. Windsor). The plant species used depend on the insect species in the test. Usually, a 72-hour translocation period before infestation is required, followed by a 48-hour exposure period, before evaluation of the tests. The insect species used in the systemic tests are Mexican bean beetle, southern armyworm, pea aphid, and twospotted spider mite.

For assay [6], the system named is twospotted spider mite. As to the kind of experiment: Systemic insecticidal activity (soil/water), twospotted spider mite. It counts as in vivo, Tetranychus urticae Koch. Conditions: Tetranychus urticae, 48-hour exposure, read-out: % Kill, Twospotted Spider Mite. As for the experimental part:
as §3, §4

Assay [7] relates to German cockroaches. As to the kind of experiment: Level I immersion test, German cockroaches. It counts as in vivo, Blattella germanica (Linnaeus). To be noted: GC (male), 5 mg/milliliter; for mortality at 5000 µg/mL: Blattella germanica, 18-24 hours, read-out: % Kill; for % Knockdown: 30 minutes after immersion. As to the method: (§5) e. Insecticidal Activity Against House Flies and German Cockroaches
Compounds of this invention were tested in a Level I test at 5 mg. of active compounds/milliliter of a solution of 40% acetone -- 60% water.
In this test a group of ten house flies (Musca domestica Linnaeus) were completely immersed in 25 ml. of the insecticidal test solution. After 10 seconds of immersion, the test solution is removed. The house flies are then transferred to holding cages lines with paper toweling. In the case of the house flies, the knockdown counts were recorded 10 minutes after termination of the immersion. The percent kill was recorded after 18-24 hours.
The same Level I test technique was employed using male German cockroaches [Blattella germanica (Linnaeus)]. In this case, the knockdown counts were recorded 30 minutes after the termination of the immersion.

Assay [8] relates to female house flies (resistant). As to the kind of experiment: Level II topical test, house flies. It counts as in vivo, Musca domestica Linnaeus. To be noted: HF (female, resistant), one microgram topically per insect; for % Knockdown: 10 minutes; for mortality at 0.001 mg: Musca domestica, topical, read-out: % Kill. As to the method: as §5
In a Level II test the compounds of this invention were tested for insecticidal activity against female house flies (resistant) and male German cockroaches. Ten insects were anesthetized with carbon dioxide and placed in a container for about 2 hours, during which time the insects recovered to normal activity. The container confining the insects is fitted with a plunger which is used to force the insects against a nylon mesh at one end of the container. One microliter of an acetone solution containing one microgram of the candidate insecticide was applied topically to each insect. The plunger was withdrawn and the insects were allowed to move freely about the container. Knockdown counts were recorded 10 minutes after treatment of house flies and 30 minutes after treatment of cockroaches.

Assay [9] has as its system granary weevil. As to the kind of experiment: Initial insecticidal activity, granary weevil. It counts as in vivo, Sitophilus granarius (Linnaeus). To be noted: Sitophilus granarius, 48-hour exposure, read-out: % Kill, Granary Weevil.
Text: as §1, §2

The results in this text go back to US4024277A, “Phosphoro-aminosulfenyl derivatives of benzofuran carbamates” (priority 1975, dated 1977).

In the case of `CCOP(=O)(OCC)N(CC)SN(C)C(=O)Oc1cccc2c1OC(C)(C)C2` [8(c), 2,3-Dihydro-2,2-dimethyl-7-benzofuranyl [(N-diethoxyphosphinyl) (N-ethyl)aminosulfenyl][methyl]carbamate], the mortality at 39 ppm is 100% in assay [1]; 0% in assay [2]; 5% in [3]; 0% in [4]; 20% in [5]; 4% in assay [6]. Moreover, the mortality at 156 ppm turned out to be 100% in assay [1]; 59% in assay [2]; 36% in assay [3]; 0% in assay [4]; 57% in assay [5]; 13% in assay [6]. Besides, the mortality at 1250 ppm in assay [1] came out at 100%; in assay [2], 100%; in [3], 100%; in assay [4], 43%. Besides, in [7], the mortality at 5000 µg/mL stood at 100%. Besides, the figures for the “% Knockdown” value in [7] and in [8] were 100% and 0%, respectively. Also, in assay [8], the mortality at 0.001 mg turned out to be 33%.

For `CCN(SN(C)C(=O)Oc1cccc2c1OC(C)(C)C2)P(=O)(OC)OC` [5(c), 2,3-dihydro-2,2-dimethyl-7-benzofuranyl [(N-dimethoxyphosphinyl) (N-ethyl)aminosulfenyl][methyl]carbamate], the mortality at 39 ppm in assay [1] was 100%; in [2], 0%; in assay [3], 6%; in assay [4] it was 0%; in assay [5], 60%; in assay [6] it was 7%. Moreover, the mortality at 156 ppm is 100% in assay [1]; 69% in [2]; 47% in assay [3]; 0% in assay [4]; 100% in assay [5]; 24% in assay [6]. Besides, the mortality at 1250 ppm stood at 100% in [1], 100% in assay [2], 100% in assay [3] and 61% in assay [4]. Also, in [7], the mortality at 5000 µg/mL is 100%. Besides, the results for the “% Knockdown” value in [7] and in assay [8] were 100% and 0%, respectively. In addition, the mortality at 0.001 mg in assay [8] was 38%.

Take `CC(C)OP(=O)(OC(C)C)N(C)SN(C)C(=O)Oc1cccc2c1OC(C)(C)C2` [6(c), 2,3-Dihydro-2,2-dimethyl-7-benzofuranyl [(N-diisopropoxyphosphinyl) (N-methyl)aminosulfenyl][methyl]carbamate]: the mortality at 39 ppm is 95% in assay [1]; 6% in assay [2]; 6% in assay [3]; 0% in assay [4]; 28% in assay [5]; 4% in [6]. The mortality at 156 ppm in [1] stood at 100%; in [2] it was 73%; in assay [3], 23%; in [4], 0%; in assay [5], 100%; in assay [6], 19%. The mortality at 1250 ppm in assay [1] was 100%; in assay [2] it was 100%; in [3], 100%; in assay [4] it was 7%. In addition, in assay [7], the mortality at 5000 µg/mL stood at 100%. The results for the “% Knockdown” value in assay [7] and in assay [8] were 100% and 0%, respectively. The mortality at 0.001 mg in assay [8] is 27%.

In the case of `CCCOP(=O)(OCCC)N(CCC)SN(C)C(=O)Oc1cccc2c1OC(C)(C)C2` [3(c)], the mortality at 39 ppm in assay [1] was found to be 85%; in [9] (39 ppm), 70%; in assay [2], 0%; in [3], 32%; in assay [4], 0%; in assay [5], 0%. Further, the mortality at 39 ppm in [6] is under 1%. Besides, the mortality at 156 ppm in assay [1] worked out at 100%; in [9] (156 ppm), 90%; in [2], 22%; in assay [3], 86%; in [4] it was 0%; in assay [5], 95%. In addition, the mortality at 156 ppm in assay [6] worked out at 5%. For the same compound, the mortality at 1250 ppm in [1] is 100%; in [9] (1250 ppm), 100%; in assay [2] it was 100%; in [3], 100%; in assay [4], 0%. Besides, the mortality at 10 ppm in assay [5] (10 ppm) is 0%; in [6] (10 ppm), under 1%. Further, the mortality at 5000 µg/mL in assay [7] is 100%. Besides, the “% Knockdown” value in assay [7] was found to be 100%; in assay [8], 0%. Also, in assay [8], the mortality at 0.001 mg worked out at 40%.

`CCCN(SN(C)C(=O)Oc1cccc2c1OC(C)(C)C2)P(=O)(Oc1ccccc1)Oc1ccccc1` [7(c)]: the mortality at 39 ppm amounted to 5% in [1]; 0% in [2]; 1% in assay [3]; 0% in assay [4]; 0% in assay [5]; 4% in assay [6]. Also, the mortality at 156 ppm in assay [1] came to 70%; in assay [2], 29%; in [3] it was 6%; in assay [4], 0%; in assay [5] it was 0%; in [6], 1%. Also, the mortality at 1250 ppm in assay [1] worked out at 95%; in [2] it was 31%; in [3], 5%; in assay [4], 0%. Also, the mortality at 5000 µg/mL in [7] was determined as 0%. For the same compound, the “% Knockdown” value in [7] was 0%.
